Reference: PubChem BioAssay (NCI)
Values joined by “and” are separate entries in the source; they are usually repeats but may differ in a detail not shown here. Equal entries are not always repeated.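 In this assay, cells in 96-well plates receive the compound at five concentrations for 48 hours. Endpoints are linearly interpolated between the surrounding concentrations. The concentration for 50% growth inhibition is given as GI50. TGI: total growth inhibition.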

Columns and labels:
Assay in all cases: NCI tumour cell line growth inhibition, 48 h
SN12C renal = tested on: SN12C renal
MALME-3M melanoma = tested on: MALME-3M melanoma
IGROV1 ovarian = tested on: IGROV1 ovarian
RXF 393 renal = tested on: RXF 393 renal
CAKI-1 renal = tested on: CAKI-1 renal
U251 CNS = tested on: U251 CNS
HCT-15 colon = tested on: HCT-15 colon
HCC-2998 colon = tested on: HCC-2998 colon
HS 578T breast = tested on: HS 578T breast
MCF7 breast = tested on: MCF7 breast

Compound | TGI (SN12C renal) | TGI (MALME-3M melanoma) | TGI (IGROV1 ovarian) | TGI (RXF 393 renal) | TGI (CAKI-1 renal) [µM] | TGI (U251 CNS) | TGI (HCT-15 colon) | TGI (HCC-2998 colon) | TGI (HS 578T breast) [µM] | TGI (MCF7 breast) [µM] | GI50 (HS 578T breast) [nM] | GI50 (SN12C renal) [µM] | GI50 (RXF 393 renal) | GI50 (MCF7 breast) [nM] | GI50 (CAKI-1 renal) [nM] | GI50 (U251 CNS) [nM] | GI50 (HCT-15 colon) | GI50 (HCC-2998 colon) [µM] | GI50 (IGROV1 ovarian) [nM] | GI50 (MALME-3M melanoma) [nM]
CC(=O)O/N=C(Cl)/C(Cl)=N/OC(C)=O | > 100 µM | > 100 µM | > 100 µM | > 100 µM | > 100 | > 100 µM | > 100 µM | > 100 µM |  |  |  |  |  |  |  |  |  |  |  | 
Cn1nc(-c2ccccc2)c(C(=O)/C=C/c2ccc(F)cc2)c(N2CCOCC2)c1=O | > 100 µM |  | 39.3 µM | 27.8 µM |  | 31.4 µM | > 100 µM |  |  |  |  |  |  |  |  |  |  |  |  | 
Nc1nc(N)c(N=Nc2ccc(C(=O)O)c(O)c2)c(N)n1 | > 100 µM | > 100 µM | > 100 µM | > 100 µM | > 100 | > 100 µM | > 100 µM |  | > 100 | > 100 |  |  |  |  |  |  |  |  |  | 
COC(=O)C1=C(O)[C@H](C(=O)OC)[C@]2(O)[C@@H](C(=O)OC)[C@H]1C[C@@H](c1ccc(OC(=O)/C=C/c3ccco3)cc1)[C@@H]2C(=O)OC | 52.3 µM |  |  | > 100 µM | 86.8 | 23.8 µM | 24 µM | 19.3 µM | > 100 | > 100 | > 100000 | 22.4 | 41600 nM | 40500 | 27000 | 10300 | 6220 nM | 7 |  | 
COc1cc2c(cc1OC)c1c(OC)c(OC)cc3c1c1c2sc(=S)n1CC3 | > 100 µM | > 100 µM | > 100 µM | > 100 µM | > 100 | > 100 µM | > 100 µM | > 100 µM |  |  |  |  |  |  |  |  |  |  |  | 
CCN(CC)CC(C)(C)C(=O)/C=C/c1ccc(/C=C/C(=O)C(C)(C)CN(CC)CC)cc1 | 1.06 µM | 2.79 µM | 7.04 µM | 0.928 µM | 1.99 | 1.57 µM | 0.901 µM | 1.56 µM | 4.45 |  |  |  |  |  |  |  |  |  |  | 
N#Cc1cc(NC(=O)c2ccccc2)c(=O)n2c1[nH]c1ccccc12 | > 100 µM | 83 µM | > 100 µM | 50.7 µM | > 100 | > 100 µM | > 100 µM | > 100 µM |  |  |  |  |  |  |  |  |  |  |  | 
COc1ccc(NC(=O)CCc2cc(C(C)(C)C)n[nH]2)cc1 | > 100 µM | > 100 µM | > 100 µM | > 100 µM | > 100 | > 100 µM | > 100 µM | > 100 µM |  |  |  |  |  |  |  |  |  |  |  | 
C=C1C(=O)OC2C1C(OC(=O)/C(C)=C\C)CC1(CO1)C1C(O)C=C(C)C21O (stereo not drawn) | 14.5 µM | 7.65 µM | 29.7 µM | 7.09 µM | 6.36 | 24.5 µM | 11 µM | 15.1 µM |  |  |  |  |  |  |  |  |  |  |  | 
Cc1cc(C)nc(NS(=O)(=O)c2ccc(NC(=O)c3ccc(Cl)c4c(Nc5ccc(S(=O)(=O)N=C(N)N)cc5)c5ccccc5nc34)cc2)n1 | 68.7 µM | > 100 µM | > 100 µM |  | > 100 | > 100 µM |  | 78.2 µM |  |  |  |  |  |  |  |  |  |  |  | 
Cc1ccc(/C=C(\C#N)c2ccccc2)cc1 | > 100 µM |  | > 100 µM | > 100 µM | > 100 | > 100 µM | > 100 µM | > 100 µM |  |  |  |  |  |  |  |  |  |  |  | 
NNC(=O)N/N=C1\C(=O)N(c2nccs2)C(=O)C(=O)C1c1nc2ccccc2s1 (stereo not drawn) | > 100 µM | > 100 µM | > 100 µM | > 100 µM | > 100 | > 100 µM | > 100 µM | > 100 µM |  |  |  |  |  |  |  |  |  |  |  | 
Cc1nc(Nc2ccccc2)sc1C(=O)CC(=O)C(=O)NC12CC3CC(CC(C3)C1)C2 | > 100 µM | > 100 µM | > 100 µM | > 100 µM | > 100 | > 100 µM | > 100 µM | > 100 µM |  |  |  |  |  |  |  |  |  |  |  | 
COc1ccc(/C=C\c2cc(OC)c(OC)c(OC)c2)c(O)c1O | 25.9 µM and 28.4 µM | 27.1 µM and 129 µM | 20.6 µM and 54.2 µM | 36 µM and 6.31 µM |  | 18.7 µM and 6.09 µM | > 57.5 µM and 8.27 µM | 2.47 µM and 3.06 µM |  |  |  | 0.296 | < 32.2 nM and 111 nM | 50 |  | 93.3 | 62.8 nM and 64.3 nM |  | 212 | 
CN(C)CCNC(=O)c1cccc2ncc(-c3ccccc3)nc12 | 42.2 µM | 26.5 µM | > 74.6 µM | 18 µM | > 68.6 | 41.7 µM | 25.2 µM | 23.4 µM |  |  |  |  |  |  |  |  |  |  |  | 
COc1ccc2c(c1)N(CCO)C1=C(C(=O)OC1)C2c1ccccc1 (stereo not drawn) | > 50 µM |  | > 50 µM |  | > 50 | > 50 µM | > 50 µM | > 50 µM | 4.99 | > 50 | 1390 | 3.7 |  | 1860 | 1150 | 1810 | 1940 nM | 3.21 | 2410 | 
CCCCCCCCCCCCCC(=O)OCC1OC(n2cc(F)c(=O)[nH]c2=O)C(N)C(OC(=O)CCCCCCCCCCCCC)C1O (stereo not drawn) | > 100 µM | > 100 µM |  | > 100 µM | > 100 | > 100 µM | > 100 µM | > 100 µM |  |  |  |  |  |  |  |  |  |  |  | 
CC(=O)C1CCC2C3CC=C4CC(SC(=N)N)CCC4(C)C3CCC12C (stereo not drawn) |  |  |  | 3.63 µM | 4.24 |  |  |  | 11.3 |  | 2560 |  | 1660 nM |  | 1680 |  |  |  |  | 
CO[C@@H]1[C@H]2[C@@H](C)c3ccoc3C[C@@H]2[C@@]2(C)CC[C@H](OC(=O)c3ccccc3)[C@](C)(C(=O)O)[C@]2(O)[C@@H]1OC(=O)c1ccccc1 | 17 µM |  | > 50 µM | 39 µM | 15.6 | 12 µM | 16.3 µM |  | > 50 | > 50 | 24800 | 7.11 | 12200 nM | 17400 | 7460 | 5870 | 7930 nM |  | > 50000 | 
CN(C)CCC1(C2=CCCC2)CC/C(=C\c2ccccc2Cl)C1=O (stereo not drawn) | 26.7 µM | 28 µM | 37.5 µM | 17.5 µM |  | 25.5 µM | 19.4 µM | 22.1 µM |  |  |  |  |  |  |  |  |  |  |  | 
CCc1nc2cc(/C=C/C(=O)NO)ccc2c(=O)n1CCc1ccc(F)cc1 |  | 12.4 µM |  |  | 6.12 | 2.91 µM | 39.6 µM | 3.95 µM | > 100 | > 100 | 2260 |  |  | 1310 | 2270 | 1310 | 1570 nM | 1.59 |  | 1830
CCOC(=O)C1SC(=Nc2ccc(Cl)cc2C)N=C1C (stereo not drawn) | 41.4 µM | 39.2 µM | 88 µM | 35.8 µM | 79.9 | 31.6 µM | 37.1 µM | 47.9 µM |  |  |  |  |  |  |  |  |  |  |  | 
